# Literature values as cited in patent US20100056426A1, “USE OF IRON CHELATOR FOR THE TREATMENT OF MYOCARDIAL INFARCTION” (NOVARTIS AG, priority 2007, published 2010).
# Read-outs that look alike come from different tables or passages of the source.
# Experiments:
# [1] = model systems; Hershko et al., Blood 2001
# [2] = humans; Nisbet Brown et al., Lancet 2003
structure (smiles),measurement,setting,value
"O=C(O)c1ccc(-n2nc(-c3ccccc3O)nc2-c2ccccc2O)cc1 [4-[3,5-bis-(2-hydroxyphenyl)-[1,2,4]-triazol-1-yl]benzoic acid]",selective removal of iron,[1],effective in the selective removal of iron
same,selective removal of iron,[2],effective in the selective removal of iron
